Numbers after ± are expanded uncertainties.
Tests used:
[1] = Crystal; DTA
[2] = Molar enthalpy of transition or fusion; conditions: Crystal; DSC

## O=C(Nc1ccc(F)cc1F)c1cccnc1Oc1cccc(C(F)(F)F)c1
[1]
  Normal melting temperature: 162.37 ± 0.61 °C
[2]
  Molar enthalpy of transition or fusion: 9.42 ± 0.22 kcal/mol
